# Source: US8529951B1, “Elastogenic cues and methods for using same” (priority 2007, dated 2013)
# How the values were obtained:
# RASMCs [1] = experiment: Collagen synthesis by RASMCs (hydroxy-proline assay); assay type: cell-based, rat
# lysyl oxidase (LOX) [2] = biological target: T1, lysyl oxidase (LOX) (Rattus norvegicus, UniProt P16636); experiment: LOX functional activity (fluorometric Amplex red assay of spent medium); assay type: cell-based; conditions: 21 days
# T1 construct: spent culture medium pooled at day 21 of a culture was assayed; endogenous in cells; host or cells: adult rat aortic smooth muscle cells (RASMCs; Cell Applications), spent culture medium
# T1 sequence (P16636 163-411): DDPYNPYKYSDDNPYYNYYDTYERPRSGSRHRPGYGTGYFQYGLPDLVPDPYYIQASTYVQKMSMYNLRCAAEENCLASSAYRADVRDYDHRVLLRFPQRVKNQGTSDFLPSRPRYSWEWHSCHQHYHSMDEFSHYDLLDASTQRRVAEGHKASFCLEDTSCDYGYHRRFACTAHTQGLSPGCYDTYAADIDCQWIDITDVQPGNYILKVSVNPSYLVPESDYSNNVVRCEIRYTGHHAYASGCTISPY
# Protocol: To determine LOX functional activity, spent culture medium pooled at day 21 of a culture was assayed using a fluorometric assay based on generation of H2O2 when LOX acts on a synthetic substrate. H2O2 was detected using an Amplex® red kit (Molecular Probes, OR,). The fluorescence intensities were recorded with excitation and emission wavelengths at 560 nm and 590 nm, respectively
# RASMCs [3] = experiment: RASMC proliferation (fluorometric DNA assay of cell layers); assay type: cell-based, rat
# Protocol: At 1 and 21 days of culture, the DNA content of the cell layers was measured to determine the proliferation of SMCs and to normalize the measured amounts of synthesized matrix (elastin, collagen). The fluorometric DNA assay, described previously by Labarca and Paigen (Labarca C, Paigen K. A simple, rapid, and sensitive DNA assay procedure. Anal Biochem. 1980; 102:344-52), was performed on cell layers processed as described previously (Joddar B, Ramamurthi A. Fragment size- and dose-specific effects of hyaluronan on matrix synthesis by vascular smooth muscle cells. Biomaterials. 2006; 27(15): 2994-3004). Actual cell counts were then calculated on the basis of an estimated 6 pg DNA/cell.
# RASMCs [4] = experiment: Desmosine content of cell-matrix layers (ELISA); assay type: cell-based, rat; conditions: Example 1
# Protocol: Desmosine content of the cell-matrix layers was determined in expectation that it would correlate with the amounts of crosslinked elastin and serve as an indirect confirmation of the earlier observed biochemical trends, with regard to synthesis of matrix elastin. To assess desmosine content, compounded test and control cell pellets were digested with collagenase type VII (Sigma; 12 h, 37° C.) and re-centrifuged (3000 g, 10 min, 4° C.) to obtain a supernatant (SI) and a pellet. This pellet was digested with pancreatic porcine elastase type III (Sigma; 12 h, 37° C.) to obtain a soluble peptide fraction (SII). Fractions SI and SII were pooled together, acid-hydrolyzed with 6 N HCl (110° C., 16 h), dried under a stream of inert N2, re-constituted in water and the desmosine content determined by ELISA as previously done.
# RASMCs [5] = experiment: SDS-PAGE/Western blot of soluble tropoelastin in spent medium; assay type: cell-based, rat; conditions: Example 1, n=3/case
# Protocol: SDS-PAGE and Western Blot were performed to confirm the observed biochemical trends for synthesis of soluble tropoelastin. Briefly, the aliquots of spent medium removed and pooled at bi-weekly intervals over the 21-day culture period, were lyophilized, assayed for protein content using a DC protein assay kit (Biorad Corporation, Hercules, Calif.), and subjected to SDS-PAGE and Western Blot. Optimized sample amounts (20 μg) were appropriately mixed and boiled (100° C., 5 min) with a loading buffer (2% w/v Sodium Dodecyl Sulfate (SDS), 62 mM Trizma base, 10% v/v Glycerol, 600 mM dithiothreitol), flash-spun in an ultracentrifuge (500 g, 2 min) and loaded under reduced conditions onto 10% w/v polyacrylamide gels (Novex Tris-Glycine gels, Invitrogen Corporation, Carlsbad, Calif.), with prestained protein standards ranging between 10-190 kDa (Benchmark Pre-stained Protein Ladder, Invitrogen) and western blot standards ranging between 20-220 kDa (MagicMark XP Western Protein Standards, Invitrogen). […] Following electrophoresis, the protein bands were transferred onto a PVDF pre-wetted membrane, developed, imaged using trans-white light, and quantified using the Alpha Innotech imaging software (Alpha Ease FC; Chemi-imager 4400) as described previously. […]
# RASMCs [6] = experiment: Matrix elastin synthesis by RASMCs (Fastin assay; alkali-soluble and alkali-insoluble fractions); conditions: for increase of total matrix production: Example 3, growth factor only (no HA), 3 weeks
# RASMCs [7] = experiment: Elastase degradation of elastin isolated from cultured cell layers; assay type: cell-based, rat; conditions: 8-hour enzymatic digestion
# Protocol: Enzymatic degradation studies were performed to compare the impact of HA oligomer exposure and their mode of delivery on elastin matrix quality, particularly their resistance to enzymatic breakdown. Elastin matrices isolated by alkali digestion of aortae explanted from adult Sprague-Dawley rats served as additional controls for these studies. Briefly, adult rat aortal segments were removed from euthanized rats, from arch to the celiac axis, under sterile conditions, and spliced lengthwise in petri dishes containing cold phosphate-buffered saline (PBS) containing 2 mM Ca^2+. These spliced sections were then transferred to a dish containing 1-2 ml of collagenase (2 mg/ml; Worthington, Lakewood, N.J.) and incubated for 10 minutes at 37° C. DMEM:F12 media was then added to these collagenase treated samples and mixed well with gentle pipetting. Isolated aortal segments were further chopped crosswise into […] pieces and transferred using fine needles onto sterile petri dishes and stored in PBS at 4° C. until further use. Cell layers were scraped off the culture wells, pelleted by centrifugation (2000 g, 15 min), and stored at −20° C. in PBS until further use (n=9/case).
# HA tetramers as described above in Example 1 were tethered onto 4-well glass chamber slides (Nalge Nunc International, Naperville, Ill.). […]
# RASMCs [8] = experiment: Tropoelastin synthesis by RASMCs (Fastin assay of pooled spent medium); assay type: cell-based, rat; conditions: Example 1, 21-day culture, n=3
# lysyl oxidase (LOX) [9] = experiment: LOX protein synthesis (Western blot of spent medium); conditions: Example 3, 16 day culture, alone or together with HA fragments
compound,measurement,setting,value
O=S(=O)([O-])[O-].[Cu+2] [copper sulfate],total collagen output per ng DNA vs. non-additive controls,"RASMCs [1]; Example 4, 0.01 M alone",0.5±0.04 fold
same,collagen synthesis vs. controls,"RASMCs [1]; Example 4, 0.01 M copper sulfate in the presence of oligomers, VLMW and HMW HA",consistently suppressed
same,total collagen output per ng DNA vs. non-additive controls,"RASMCs [1]; Example 4, 0.1 M alone",4.1±0.4 fold
same,LOX activity vs. controls,"lysyl oxidase (LOX) [2]; Example 4, 0.01 M alone",1.4±0.2
same,basal LOX functional activity,"lysyl oxidase (LOX) [2]; Example 4, 0.1 M alone or concurrent with HA fragments (except VLMW HA)",no significant effect
same,cell proliferation,"RASMCs [3]; Example 4, 0.01 M copper sulfate and HA fragments",stimulated
CC(=O)N[C@H]1[C@H](O[C@H]2[C@H](O)[C@@H](O)[C@H](O[C@H]3[C@H](O)[C@@H](CO)OC(O)[C@@H]3NC(C)=O)O[C@@H]2C(=O)O)O[C@H](CO)[C@@H](O)[C@@H]1O[C@@H]1O[C@H](C(=O)O)[C@@H](O)[C@H](O)[C@H]1O (stereo partly drawn) [pure HA 4-mer],collagen production (DNA normalized) relative to respective controls,"RASMCs [1]; Example 1, 21-day culture",2.0±0.1 times
same,desmosine amount normalized to DNA and to non-HA controls,RASMCs [4],4.76±0.10
same,normalized tropoelastin band intensity (pixel intensity per ng DNA),RASMCs [5],0.15±0
same,DNA normalized matrix elastin output relative to controls,"RASMCs [6]; Example 1, 21-day culture",2.7±0.3 times
same,"proliferation, times number at 1 day","RASMCs [3]; Example 1, 21 days of culture, n=3",1.66±0.05 times number at 1 day
same,% weight loss of cell pellet elastin on elastase digestion,RASMCs [7]; exogenous HA 4 mers,35%
same,% weight loss of cell pellet elastin on elastase digestion,RASMCs [7]; surface-tethered HA 4 mers,50%
same,tropoelastin output (DNA normalized) relative to respective control cultures,RASMCs [8],1.63±0.06 times
"O=S(=O)([O-])[O-].[Na+].[Na+] [sodium sulfate, reference compound]",total collagen output per ng DNA vs. non-additive controls,"RASMCs [1]; Example 4, 0.01 M alone",1.1±0.13 fold
same,total collagen output per ng DNA vs. non-additive controls,"RASMCs [1]; Example 4, 0.1 M alone",0.94±0.15 fold
same,RASMC proliferation vs. controls,"RASMCs [3]; Example 4, alone, irrespective of the added dose (0.01 and 0.1 M)",no effect
"IGF-1: insulin-like growth factor, added at 500 ng/ml",elastin matrix production compared to control,"RASMCs [6]; Example 3, IGF-1 only with no HA",did not upregulate
same,increase of total matrix production,RASMCs [6],150±20%
same,inhibition of cell proliferation,"RASMCs [3]; Example 3, 21 days, all cases except in the presence of oligomers and HMWHA",50%
"TGF-β: transforming growth factor, added at 1 ng/ml",collagen production,"RASMCs [1]; Example 3, in inverse correlation to the added HA fragment size",inhibit
same,LOX protein synthesis,lysyl oxidase (LOX) [9],enhanced
same,crosslinking of soluble tropoelastin into matrix elastin,RASMCs [6]; Example 3,significantly enhance
same,increase of total matrix production,RASMCs [6],270±12%
